Laboratory results as given in paper PMC6272399, “Anti-Proliferative Effect and Induction of Apoptosis in Androgen-Independent Human Prostate Cancer Cells by 1,5-Bis(2-hydroxyphenyl)-1,4-pentadiene-3-one” (Molecules, 2015).

Experiments:
PC-3 cells = assay: MTT cytotoxicity (cell viability) assay, PC-3; type: cell-based, human
Method: (§1) Cell viability was determined by the MTT [3-(4,5-dimethylthiazol-2-yl)-2,5-diphenyltetrazolium bromide] assay, as previously described by Mosmann with modifications. Briefly, cells were detached from the tissue culture flask and pelleted by centrifugation at 1000 rpm for 5 min. Then, the density of the viable cells was counted using a haemocytometer. Cells were then plated in a 96-well flat bottom micro-titer plate (Nunc) at a concentration of 10^4 cells/mL and incubated in a 5% CO2 incubator at 37 °C overnight to allow the cells to adhere to the bottom of the wells. After 24 h, the media was aspirated off and replaced with fresh media containing sample compounds (curcumin and curcumin analogues) of seven different concentrations ranging from 1.56 µM–100 µM and incubated at 37 °C, 5% CO2 for 72 h. Separately, the sample compounds were prepared in a stock solution of 50 mM in 100% dimethyl sulfoxide (DMSO, Molecular Biology Grade, Sigma-Aldrich, St. Louis, MO, USA) and diluted in the culture media to a working concentration of 200 µM. Curcumin, the parent compound which was used as the positive control was also prepared in the similar manner. A two-fold serial dilution was done for each sample in triplicates down the columns of the plate, yielding a final volume and concentration of 100 µL in 0.2% DMSO in each wells. Following treatment, 50 µL MTT solutions (0.5 mg/mL in PBS) was added to each well and incubated for another 4 h at 37 °C in a humidified 5% CO2 incubator. The supernatant was replaced with 100 µL of DMSO and the optical density (OD) was measured at 570/650 nm using a micro-plate ELISA reader (Bio-Rad Laboratories, Hercules, CA, USA). The percentage of viable cells was calculated based on the ratio of the corrected absorbance of sample-treated cells to the corrected absorbance of the control (0.2% DMSO-treated cells) multiplied by 100. The percentage of cell viability was determined as follows: % Cell viability= OD of treated cells /OD of control ×100
(§2) For each compound tested, the EC50 value was generated from the log dose-response curves for each cell line using the Graphpad Prism version 5.04 for Windows (Graphpad Software, La Jolla, CA, USA). […] Cytotoxicity of each tested compound is expressed as the EC50 value. Based on the EC50 values, selectivity index (SX) value was also determined. Selectivity index is a special parameter applied as a selectivity indicator of tested compounds towards cancer cells. The SX represents the ratio of EC50 value obtained in toxicity testing using the normal cell lines to the EC50 values of the toxicity testing of the cancer cells, and then multiplied by 100. All the compounds were assessed for their potential toxicity against normal, non-cancerous cells. […] The SX values were calculated using the following equation: SX = EC50 (normal cells)/EC50 (cancer cells) × 100

DU 145 cells [1] = assay: MTT cytotoxicity (cell viability) assay, DU 145; type: cell-based, human
Method: as §1, §2

[2] = test system: WI-38 (human lung fibroblast cells); assay: MTT cytotoxicity assay, normal WI-38; type: cell-based; conditions: normal cell line, 72 h treatment, mean ± SD, read-out: EC50 Values (µM) of Compounds on Cell Lines WI-38
Method: as §1, §2

DU 145 cells [3] = assay: BrdU cell proliferation assay, DU 145; type: cell-based, human; conditions: DU 145, BrdU
Method: The anti-proliferative effects of compound on treated cells, was measured using the BrdU cell proliferation assay kit (Roche Applied Science Diagnostics, Indianapolis, IN, USA) according to the manufacturer’s protocol. The assay was based on incorporation of BrdU during DNA synthesis in proliferating cells. Cells were plated at a concentration of 10^4 cells/mL in a 96-well microtiter plate and incubated overnight. The cells were treated with compounds and curcumin (concentrations ranging from 1.56 µM–100 µM) as positive control for 24, 48 and 72 h respectively. Then, BrdU labeling solution (5 µL, diluted by 1/100 in culture media) was added to each well and incubated for 2 h at 37 °C. The media was replaced with fix/denaturing solution (100 µL) and incubated for 30 min at room temperature. Then, the fix/denaturing solution was removed by tapping off and followed by addition of 50 µL anti-BrdU antibody (50 µL, diluted by 1/100 in dilution buffer) to each well and further incubated for another 90 min at room temperature. Next, the cells were washed 3 times with wash buffer and substrate solution (50 µL) was added to each well. The plate was left for 10 min at room temperature in the dark and the absorbance was measured at a wavelength of 370 nm with a reference wavelength of 492 nm using a micro-plate ELISA reader (Bio-Rad). The percentage of BrdU incorporation was determined based on the ratio of absorbance of sample treated-cells to absorbance of control (untreated cells/DMSO only) multiplied by 100.

prostate cancer cells = test system: prostate cancer cells; design: method as in PMID 21796654; conditions: compound labeled ca27; cited from earlier work

In the case of `O=C(C=Cc1ccccc1O)C=Cc1ccccc1O` [MS17, 1,5-bis(2-hydroxyphenyl)-1,4-pentadiene-3-one], the EC50 (PC-3 cells; Homo sapiens, PC-3, MTT, 72 h treatment, mean ± SD, three experiments, read-out: EC50 Values (µM) of Compounds on Cell Lines PC-3) is reported as 4.4 ± 0.3 µM, the “dose from which decrease in cell viability is significant” value (PC-3 cells; PC-3, MTT, vs untreated) is reported as 3.1 µM and the “Selective index (SX) WI-38 vs PC-3” value (PC-3 cells; SX = EC50 (WI-38)/EC50 (PC-3) × 100) is reported as 117.4. For the same molecule, the “Selective index (SX) WRL68 vs PC-3” value (PC-3 cells; SX = EC50 (WRL68)/EC50 (PC-3) × 100) was 124.9, the “dose from which decrease in cell viability is significant” value (DU 145 cells [1]; DU 145, MTT, vs untreated) was 6.3 µM and the EC50 (DU 145 cells [1]; Homo sapiens, DU-145, MTT, 72 h treatment, mean ± SD, three experiments, read-out: EC50 Values (µM) of Compounds on Cell Lines DU 145) was 4.1 ± 0.8 µM. The “Selective index (SX) WI-38 vs DU 145” value (DU 145 cells [1]; SX = EC50 (WI-38)/EC50 (DU 145) × 100) was 126.3, the “Selective index (SX) WRL68 vs DU 145” value (DU 145 cells [1]; SX = EC50 (WRL68)/EC50 (DU 145) × 100) was 134.3 and the EC50 [2] was 5.2 ± 1.2 µM. The “concentration from which anti-proliferative activity is significant” value (DU 145 cells [3]; 24 h) was 6.3 µM, the “concentration from which anti-proliferative activity is significant” value (DU 145 cells [3]; 48 h) was 6.3 µM and the “concentration from which anti-proliferative activity is significant” value (DU 145 cells [3]; 72 h) was 12.5 µM. For the same molecule, the “growth inhibition of prostate cancer cells” value (prostate cancer cells) was “able to inhibit the growth of prostate cancer cells at a concentration below that typically used for curcumin”.
